Active and inactive are the calls of the source. No cut-off for these calls is given here. Where a SMILES comes first, the peptide text is derived from it. The star is where a group is joined. X1 = CCCCCCCCCCCCCC(=O)N[C@@H](C*)C(=O)NCCCCCCCC; Myristoyl = CCCCCCCCCCCCCC(=O)*
Columns and labels:
[1] = molecular target: T1, Toll-like receptor 2 (Homo sapiens, UniProt O60603); assay: Antagonist activity at human TLR2 expressed in HE293 cells co-transfected with pELAM by luciferase reporter gene assay; assay type: functional, cell-based, HEK293
[2] = species: Homo sapiens; assay: Selectivity for human TLR2 over human TLR4
[3] = molecular target: T2, Toll-like receptor 7 (Homo sapiens, UniProt Q9NYK1); assay: Agonist activity at TLR7 in human PBMC cells assessed as stimulation of interferon release; assay type: functional, cell-based
T2 sequence (Q9NYK1 whole entry): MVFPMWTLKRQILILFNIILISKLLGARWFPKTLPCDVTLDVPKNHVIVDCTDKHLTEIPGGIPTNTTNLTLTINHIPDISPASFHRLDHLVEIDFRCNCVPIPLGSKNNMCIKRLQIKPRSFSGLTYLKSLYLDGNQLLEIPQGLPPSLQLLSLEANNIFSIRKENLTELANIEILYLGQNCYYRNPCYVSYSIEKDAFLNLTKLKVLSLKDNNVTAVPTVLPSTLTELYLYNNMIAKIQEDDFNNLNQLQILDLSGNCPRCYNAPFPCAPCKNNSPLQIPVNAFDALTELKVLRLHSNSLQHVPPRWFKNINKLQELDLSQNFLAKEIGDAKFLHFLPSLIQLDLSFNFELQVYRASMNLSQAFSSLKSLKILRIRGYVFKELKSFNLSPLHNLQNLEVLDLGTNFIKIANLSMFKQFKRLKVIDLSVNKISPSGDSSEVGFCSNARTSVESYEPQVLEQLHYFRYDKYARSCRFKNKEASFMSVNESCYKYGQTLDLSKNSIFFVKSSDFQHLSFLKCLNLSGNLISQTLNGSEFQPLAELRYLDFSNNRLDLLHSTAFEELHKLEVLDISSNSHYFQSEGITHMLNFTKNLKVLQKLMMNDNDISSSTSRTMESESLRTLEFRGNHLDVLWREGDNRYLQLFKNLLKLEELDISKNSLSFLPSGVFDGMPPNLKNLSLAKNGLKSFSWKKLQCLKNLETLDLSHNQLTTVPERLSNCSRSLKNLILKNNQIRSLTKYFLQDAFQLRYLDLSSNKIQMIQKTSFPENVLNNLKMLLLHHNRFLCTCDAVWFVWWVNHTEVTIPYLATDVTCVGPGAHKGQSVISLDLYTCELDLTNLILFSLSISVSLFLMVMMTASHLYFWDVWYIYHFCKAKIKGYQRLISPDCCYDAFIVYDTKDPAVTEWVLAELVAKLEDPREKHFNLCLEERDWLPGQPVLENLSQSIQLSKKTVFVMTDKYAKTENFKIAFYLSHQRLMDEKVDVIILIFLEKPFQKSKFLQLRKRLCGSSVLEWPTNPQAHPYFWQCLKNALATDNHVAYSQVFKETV

[4] = molecular target: T2, Toll-like receptor 7; assay: (§1) Agonist activity at human TLR7 by luciferase reporter gene assay; assay type: functional
[5] = molecular target: Toll-like receptor 4 (Mus musculus) (UniProt Q9QUK6); assay: Inhibition of mouse TLR4-mediated cytokine production in mouse macrophages
[6] = molecular target: T3, Toll-like receptor 4 (Homo sapiens, UniProt O00206); assay: Antagonist activity at TLR4 in human HL60 cells assessed as inhibition of LPS-induced cytokine production; assay type: functional, cell-based, HL-60
[7] = molecular target: T3, Toll-like receptor 4; assay: Antagonist activity at human TLR4 assessed as inhibition of LPS-induced cytokine production in HL-60 cells
[8] = molecular target: T4, Toll-like receptor 8 (Homo sapiens, UniProt Q9NR97); assay: Agonist activity at human TLR8 expressed in HEK cells by NF-kappaB luciferase reporter gene assay; assay type: functional, cell-based, HEK293
T4 sequence (Q9NR97 whole entry): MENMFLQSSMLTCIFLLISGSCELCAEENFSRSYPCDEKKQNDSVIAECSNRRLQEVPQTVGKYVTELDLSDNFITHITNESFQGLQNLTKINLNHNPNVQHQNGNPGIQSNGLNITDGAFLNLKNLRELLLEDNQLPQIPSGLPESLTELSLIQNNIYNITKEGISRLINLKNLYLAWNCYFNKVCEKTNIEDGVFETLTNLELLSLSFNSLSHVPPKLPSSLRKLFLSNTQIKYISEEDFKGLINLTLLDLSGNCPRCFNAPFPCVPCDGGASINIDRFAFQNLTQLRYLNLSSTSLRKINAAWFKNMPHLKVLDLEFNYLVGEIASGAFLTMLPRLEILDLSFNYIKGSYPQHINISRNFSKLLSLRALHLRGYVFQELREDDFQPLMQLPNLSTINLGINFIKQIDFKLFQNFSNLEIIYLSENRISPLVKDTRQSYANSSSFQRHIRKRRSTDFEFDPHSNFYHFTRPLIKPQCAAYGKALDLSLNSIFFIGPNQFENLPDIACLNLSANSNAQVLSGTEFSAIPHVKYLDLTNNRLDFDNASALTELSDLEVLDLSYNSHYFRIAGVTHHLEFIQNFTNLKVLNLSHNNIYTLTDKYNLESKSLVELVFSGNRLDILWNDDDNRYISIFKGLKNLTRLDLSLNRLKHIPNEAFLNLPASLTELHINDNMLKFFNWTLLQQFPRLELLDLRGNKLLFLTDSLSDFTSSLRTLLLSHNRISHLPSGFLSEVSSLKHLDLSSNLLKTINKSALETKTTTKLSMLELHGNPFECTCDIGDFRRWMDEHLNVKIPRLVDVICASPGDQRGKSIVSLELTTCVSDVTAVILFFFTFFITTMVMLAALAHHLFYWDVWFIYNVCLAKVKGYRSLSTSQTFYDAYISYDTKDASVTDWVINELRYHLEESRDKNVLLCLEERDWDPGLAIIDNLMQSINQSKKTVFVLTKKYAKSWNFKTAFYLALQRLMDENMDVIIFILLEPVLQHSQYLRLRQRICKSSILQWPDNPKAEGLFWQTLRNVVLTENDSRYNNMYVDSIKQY

[9] = molecular target: T4, Toll-like receptor 8; assay: Agonist activity at TLR8 in human PBMC cells assessed as TNFalpha level by ELISA; assay type: functional, cell-based
[10] = molecular target: T3, Toll-like receptor 4; assay: Antagonist activity at human TLR4 expressed in HE293 cells by ELAM1-luciferase reporter gene assay; assay type: functional, cell-based, HEK293
[11] = molecular target: T3, Toll-like receptor 4; assay: Antagonist activity at TLR4 in human PBMC cells assessed as suppression of LPS-induced cytokine upregulation; assay type: functional, cell-based
[12] = molecular target: T1, Toll-like receptor 2; assay: Inhibition of TLR2-mediated IL8 secretion in human THP1 cells; assay type: cell-based, THP-1
[13] = molecular target: T5, Toll-like receptor 9 (Homo sapiens, UniProt Q9NR96); assay: Antagonist activity at human TLR9 expressed in HEK293 cells assessed as blockade of CpG oligonucleotide-induced immune response by NF-kappaB luciferase reporter gene assay; assay type: functional, cell-based
T5 sequence (Q9NR96 whole entry): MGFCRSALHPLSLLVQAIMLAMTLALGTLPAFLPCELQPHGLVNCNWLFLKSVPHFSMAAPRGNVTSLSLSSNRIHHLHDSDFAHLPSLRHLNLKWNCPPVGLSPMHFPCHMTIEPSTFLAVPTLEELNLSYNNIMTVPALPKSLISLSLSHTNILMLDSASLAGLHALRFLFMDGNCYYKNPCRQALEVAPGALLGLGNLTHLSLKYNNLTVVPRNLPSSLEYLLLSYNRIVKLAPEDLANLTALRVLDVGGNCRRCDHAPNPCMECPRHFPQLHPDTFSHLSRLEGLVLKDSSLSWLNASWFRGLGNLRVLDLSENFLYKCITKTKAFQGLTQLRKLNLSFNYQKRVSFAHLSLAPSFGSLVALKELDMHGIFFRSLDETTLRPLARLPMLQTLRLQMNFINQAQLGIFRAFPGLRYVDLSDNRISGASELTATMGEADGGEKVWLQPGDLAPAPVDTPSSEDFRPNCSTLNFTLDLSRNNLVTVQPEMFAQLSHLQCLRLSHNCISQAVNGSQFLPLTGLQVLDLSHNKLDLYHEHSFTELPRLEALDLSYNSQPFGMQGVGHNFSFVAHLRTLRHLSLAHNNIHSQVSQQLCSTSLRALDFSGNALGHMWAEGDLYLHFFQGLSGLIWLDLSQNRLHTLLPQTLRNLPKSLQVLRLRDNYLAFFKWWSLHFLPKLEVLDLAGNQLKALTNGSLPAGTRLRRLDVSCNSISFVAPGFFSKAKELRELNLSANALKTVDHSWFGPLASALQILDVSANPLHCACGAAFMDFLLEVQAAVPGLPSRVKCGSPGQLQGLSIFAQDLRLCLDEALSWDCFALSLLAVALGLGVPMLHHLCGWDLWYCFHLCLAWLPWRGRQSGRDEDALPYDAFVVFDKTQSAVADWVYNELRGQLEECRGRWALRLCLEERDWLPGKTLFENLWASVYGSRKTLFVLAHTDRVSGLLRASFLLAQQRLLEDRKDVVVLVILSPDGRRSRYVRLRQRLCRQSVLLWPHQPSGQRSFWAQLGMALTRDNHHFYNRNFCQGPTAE

[14] = molecular target: T6, Toll-like receptor 7 (Homo sapiens) (UniProt Q9NYK1); assay: as §1; assay type: functional
T6 sequence (whole entry): T2 sequence (Q9NYK1 whole entry)

T1 sequence (O60603 whole entry): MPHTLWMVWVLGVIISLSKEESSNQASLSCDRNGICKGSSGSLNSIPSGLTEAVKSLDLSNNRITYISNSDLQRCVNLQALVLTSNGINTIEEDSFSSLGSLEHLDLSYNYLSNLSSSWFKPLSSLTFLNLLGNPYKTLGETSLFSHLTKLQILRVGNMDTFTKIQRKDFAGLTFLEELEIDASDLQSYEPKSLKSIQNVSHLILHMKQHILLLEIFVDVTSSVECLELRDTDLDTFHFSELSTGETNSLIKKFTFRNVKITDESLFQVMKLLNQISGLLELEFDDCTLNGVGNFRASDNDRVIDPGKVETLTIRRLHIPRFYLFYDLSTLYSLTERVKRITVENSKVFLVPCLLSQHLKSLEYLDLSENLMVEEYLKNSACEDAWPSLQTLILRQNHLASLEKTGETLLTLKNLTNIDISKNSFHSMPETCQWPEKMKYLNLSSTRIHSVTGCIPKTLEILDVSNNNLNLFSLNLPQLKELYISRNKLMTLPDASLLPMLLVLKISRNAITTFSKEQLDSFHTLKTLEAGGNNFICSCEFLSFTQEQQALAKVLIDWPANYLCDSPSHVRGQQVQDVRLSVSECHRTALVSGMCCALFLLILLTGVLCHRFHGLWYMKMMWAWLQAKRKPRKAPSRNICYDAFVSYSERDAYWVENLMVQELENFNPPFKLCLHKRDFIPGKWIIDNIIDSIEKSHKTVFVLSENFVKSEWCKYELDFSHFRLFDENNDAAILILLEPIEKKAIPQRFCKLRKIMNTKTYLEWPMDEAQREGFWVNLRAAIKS
T3 sequence (O00206 whole entry): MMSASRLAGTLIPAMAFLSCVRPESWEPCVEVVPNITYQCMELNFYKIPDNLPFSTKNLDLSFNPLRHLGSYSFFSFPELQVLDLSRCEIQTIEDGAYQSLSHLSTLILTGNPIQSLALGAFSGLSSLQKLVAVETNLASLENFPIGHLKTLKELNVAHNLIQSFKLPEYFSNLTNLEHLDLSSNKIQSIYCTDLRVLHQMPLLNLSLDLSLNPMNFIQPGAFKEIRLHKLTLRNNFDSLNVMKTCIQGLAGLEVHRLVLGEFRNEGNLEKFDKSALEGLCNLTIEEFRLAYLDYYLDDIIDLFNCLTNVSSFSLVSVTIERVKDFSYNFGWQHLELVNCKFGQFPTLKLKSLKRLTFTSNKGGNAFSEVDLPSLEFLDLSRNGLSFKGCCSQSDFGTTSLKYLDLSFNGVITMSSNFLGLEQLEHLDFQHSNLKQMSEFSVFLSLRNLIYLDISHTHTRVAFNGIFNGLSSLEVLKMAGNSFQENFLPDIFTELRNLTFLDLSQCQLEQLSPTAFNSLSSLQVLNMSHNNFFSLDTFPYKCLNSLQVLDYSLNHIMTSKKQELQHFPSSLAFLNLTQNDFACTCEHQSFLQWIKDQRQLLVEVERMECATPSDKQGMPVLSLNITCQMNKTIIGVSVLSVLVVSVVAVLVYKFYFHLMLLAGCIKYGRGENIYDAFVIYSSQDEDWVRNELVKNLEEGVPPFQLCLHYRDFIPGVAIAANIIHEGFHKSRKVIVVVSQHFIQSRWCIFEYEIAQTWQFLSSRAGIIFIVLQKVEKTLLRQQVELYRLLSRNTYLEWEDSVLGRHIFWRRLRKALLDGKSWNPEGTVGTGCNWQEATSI

CCCCCCCCCCCCCCCCCCCC(=O)N[C@@H](COP(=O)(O)OCCNC(=O)[C@@H](NC(=O)Cc1c[nH]c2ccc(OCc3ccccc3)cc12)[C@@H](C)CC)C(=O)NCCC(O)CCCCCCCCCCCCC (some centres undefined)
IC50 [1]: 240 nM
Selectivity ratio [2]: > 25

Nc1nc(NCc2ccccc2)nc2c1[nH]c(=O)n2Cc1cccc(CP(=O)(O)O)c1
EC50 [3]: 10 nM
EC50 [4]: 10 nM

COCCOc1nc(N)c2[nH]c(=O)n(CCCN(Cc3ccc(CC(=O)OC)cc3)C(=O)CCC(=O)OC(C)(C)C)c2n1
EC50 [4]: < 20 nM

CCOC(=O)C1=CCCCC1S(=O)(=O)Nc1ccc(Cl)cc1F (centres undefined)
IC50 [5]: 160 nM

CCCCCC/C=C\CCCCCCCCCC(=O)N[C@H]1[C@H](OC[C@H]2O[C@H](OP(=O)(O)O)[C@H](NC(=O)CC(=O)CCCCCCCCCCC)[C@@H](OCCCCCCCCCC)[C@@H]2O)O[C@H](COC)[C@@H](OP(=O)(O)O)[C@@H]1OCC[C@@H](CCCCCCC)OC [ERITORAN TETRASODIUM]
IC50 [6]: 1.5 nM
IC50 [7]: 1.5 nM

CCCCCCCCCCCCCCCCCCCC(=O)N[C@@H](COP(=O)(O)OCCNC(=O)[C@@H](NC(=O)Cc1c[nH]c2ccccc12)[C@@H](C)CC)C(=O)NCCC(O)CCCCCCCCCCCCC (some centres undefined)
IC50 [1]: 460 nM
Selectivity ratio [2]: > 25

CCOC(=O)C1=CCCCC1S(=O)(=O)NC1=NCCS1 (centres undefined)
IC50 [5]: > 10000 nM

CCOC(=O)C1=CCCC1S(=O)(=O)Nc1ccc(F)cc1Cl (centres undefined)
IC50 [5]: 110 nM

CCN(CC)C(=O)N1CC(N)=Nc2ccccc2C1
EC50 [8]: < 100000 nM
EC50 [9]: < 100000 nM

CCOC(=O)c1ccccc1S(=O)(=O)Nc1ccc(F)cc1Cl
IC50 [5]: > 10000 nM

COCCOc1nc(N)c2nc(NCCCO)n(Cc3ccccc3)c2n1
EC50 [4]: 3200 nM

CCOC(=O)N1CC(N)=Nc2ccccc2C1
EC50 [8]: < 100000 nM
EC50 [9]: < 100000 nM

COCCOc1nc(N)c2nc(S)n(Cc3cccc(CP(C)(=O)O)c3)c2n1
EC50 [3]: 10 nM
EC50 [4]: 10 nM

CCOC(=O)C1=CCCCCC1S(=O)(=O)Nc1ccc(F)cc1Cl (centres undefined)
IC50 [5]: 240 nM

Nc1ccccc1Oc1ccc2c(N)nsc2c1
IC50 [10]: 7000 nM
IC50 [11]: 3000 nM

Cc1ccc(Cn2c(=O)[nH]c3c(N)nc(-c4nccs4)cc32)cn1
EC50 [4]: 100 nM

COCCOc1nc(N)c2nc(N)n(Cc3ccccc3)c2n1
EC50 [4]: > 10000 nM

CCOC(=O)C1=CCCCC1S(=O)(=O)Nc1ccc(F)cc1Cl (centres undefined)
IC50 [5]: 3.2 nM

CCNc1nc2c(N)nc(OCCOC)nc2n1Cc1ccccc1
EC50 [4]: 4400 nM

CCCCCCCCCCCCCC(=O)N[C@@H](CSC[C@H](NC(=O)CCCCCCCCCCCCC)C(=O)N[C@@H](CO)C(=O)N[C@@H](CCCCN)C(=O)N[C@@H](CCCCN)C(=O)N[C@@H](CCCCN)C(=O)N[C@@H](CCCCN)C(N)=O)C(=O)NCCCCCCCC (Myristoyl-C(X1)SKKKK-NH2)
IC50 [12]: 5000 nM

CCCCCCCCCCCCCC(=O)N[C@@H](COP(=O)(O)OCCNC(=O)[C@@H](NC(=O)Cc1ccc(O)cc1)[C@@H](C)C(=O)O)C(=O)NCCC(CCCCCCC)OC(=O)CCCCCCCCCCC (some centres undefined)
IC50 [1]: 900 nM

COCCOc1nc(N)c2[nH]c(=O)n(CCCN(Cc3ccc(CC(=O)OC)cc3)C(=O)CN3CCN(C)CC3)c2n1
EC50 [4]: < 20 nM

CN(C)CCNc1nc(-c2ccc(N3CCN(C)CC3)cc2)nc2ccccc12
IC50 [13]: 3 nM

COCCOc1nc(N)c2nc(NN)n(Cc3ccccc3)c2n1
EC50 [4]: 790 nM

CCCCCCCCCCCCCCCC(=O)N[C@@H](COP(=O)(O)OCCNC(=O)[C@@H](NC(=O)Cc1c[nH]c2ccc(-c3ccccc3)cc12)[C@@H](C)CC)C(=O)NCCCOC(=O)CCCCCCCCCCC
IC50 [1]: 230 nM

CCN(CC)c1nc2c(N)nc(OCCOC)nc2n1Cc1ccccc1
Activity [14]: inactive

Reference: ChEMBL document CHEMBL1142478, “Small molecule modulators of toll-like receptors” (J Med Chem, 2008)
